From PubChem BioAssay (NCI)
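At the GI50, growth is halved. TGI denotes the concentration required for complete inhibition of growth.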

Legend:
Experiment in all cases: DTP human tumour cell line panel, 384-well format
[1] = test system: 786-0 renal
[2] = test system: A498 renal
[3] = test system: A549 NSCLC
[4] = test system: CCRF-CEM leukemia
[5] = test system: COLO 205 colon
[6] = test system: DU-145 prostate
[7] = test system: EKVX NSCLC
[8] = test system: HCC-2998 colon
[9] = test system: HCT-116 colon
[10] = test system: HL-60(TB) leukemia
[11] = test system: HOP-62 NSCLC
[12] = test system: HOP-92 NSCLC
[13] = test system: HS 578T breast
[14] = test system: HT29 colon
[15] = test system: IGROV1 ovarian
[16] = test system: K-562 leukemia
[17] = test system: LOX IMVI melanoma
[18] = test system: M14 melanoma
[19] = test system: MALME-3M melanoma
[20] = test system: MDA-MB-435 melanoma
[21] = test system: MDA-MB-468 breast
[22] = test system: NCI-H226 lung
[23] = test system: NCI-H460 NSCLC
[24] = test system: NCI-H522 lung
[25] = test system: NCI/ADR-RES ovarian
[26] = test system: OVCAR-3 ovarian
[27] = test system: OVCAR-4 ovarian
[28] = test system: OVCAR-5 ovarian
[29] = test system: OVCAR-8 ovarian
[30] = test system: PC-3 prostate
[31] = test system: RPMI-8226 leukemia
[32] = test system: RXF 393 renal
[33] = test system: SF-268 CNS
[34] = test system: SF-295 CNS
[35] = test system: SF-539 CNS
[36] = test system: SK-MEL-2 melanoma
[37] = test system: SK-MEL-28 melanoma
[38] = test system: SK-MEL-5 melanoma
[39] = test system: SK-OV-3 ovarian
[40] = test system: SN12C renal
[41] = test system: SR leukemia
[42] = test system: SW-620 colon
[43] = test system: T-47D breast
[44] = test system: TK-10 renal
[45] = test system: U251 glioblastoma
[46] = test system: UACC-257 melanoma
[47] = test system: UACC-62 melanoma

## CC(C)Nc1cc(-c2c[nH]c(C(=O)N[C@H](CO)c3cccc(Cl)c3)c2)c(Cl)cn1
[1]
  GI50: 3.58 µM
  TGI: 17.1 µM
[2]
  GI50: 1.76 µM
  TGI: 12.7 µM
[3]
  GI50: 0.641 µM
  TGI: 13.4 µM
[4]
  GI50: 2.89 µM
  TGI: 12.5 µM
[5]
  GI50: 0.134 µM
  TGI: 1.07 µM
[6]
  GI50: 9.92 µM
  TGI: 24.3 µM
[7]
  GI50: 3.46 µM
  TGI: 17.3 µM
[8]
  GI50: 0.0896 µM
  TGI: 0.309 µM
[9]
  GI50: 0.231 µM
  TGI: 3.11 µM
[10]
  GI50: 0.184 µM
  TGI: 1.17 µM
[11]
  GI50: 3.19 µM
  TGI: 19.4 µM
[12]
  GI50: 0.445 µM
  TGI: 2.13 µM
[13]
  GI50: 10.5 µM
  TGI: 22.3 µM
[14]
  GI50: 0.289 µM
  TGI: 13.2 µM
[15]
  GI50: 0.496 µM
  TGI: 7.2 µM
[16]
  GI50: 1.45 µM
  TGI: 13.4 µM
[17]
  GI50: 0.184 µM
  TGI: 0.883 µM
[18]
  GI50: 0.0842 µM
  TGI: 0.328 µM
[19]
  GI50: 0.0197 µM
  TGI: 0.076 µM
[20]
  GI50: 0.314 µM
  TGI: 13.4 µM
[21]
  GI50: 6.13 µM
  TGI: 16.1 µM
[22]
  GI50: 1.34 µM
  TGI: 16.6 µM
[23]
  GI50: 0.758 µM
  TGI: 13.6 µM
[24]
  GI50: 1.8 µM
  TGI: 13.2 µM
[25]
  GI50: 9.98 µM
  TGI: 22.2 µM
[26]
  GI50: 4.95 µM
  TGI: 19.6 µM
[27]
  GI50: 11.6 µM
  TGI: 24 µM
[28]
  GI50: 0.567 µM
  TGI: 16.2 µM
[29]
  GI50: 5.72 µM
  TGI: 19.5 µM
[30]
  GI50: 7.81 µM
  TGI: 21.3 µM
[31]
  GI50: 0.366 µM
  TGI: 1.88 µM
[32]
  GI50: 4.14 µM
  TGI: 16.5 µM
[33]
  GI50: 11 µM
  TGI: 23 µM
[34]
  GI50: 7.68 µM
  TGI: 20.2 µM
[35]
  GI50: 4.36 µM
  TGI: 16.2 µM
[36]
  GI50: 0.186 µM
  TGI: 0.467 µM
[37]
  GI50: 0.12 µM
  TGI: 0.509 µM
[38]
  GI50: 0.265 µM
  TGI: 2.04 µM
[39]
  GI50: 6.86 µM
  TGI: 19.6 µM
[40]
  GI50: 6.15 µM
  TGI: 21.4 µM
[41]
  GI50: 1.01 µM
  TGI: 2.21 µM
[42]
  GI50: 0.13 µM
  TGI: 1.82 µM
[43]
  GI50: 9.03 µM
  TGI: 21.9 µM
[44]
  GI50: 2.6 µM
  TGI: 17.3 µM
[45]
  GI50: 2 µM
  TGI: 15.8 µM
[46]
  GI50: 0.144 µM
  TGI: 0.498 µM
[47]
  GI50: 0.0563 µM
  TGI: 0.895 µM
